± gives the standard deviation of the averaged measurements.
Assays:
MDV3100 = compound: CNC(=O)c1ccc(N2C(=S)N(c3ccc(C#N)c(C(F)(F)F)c3)C(=O)C2(C)C)cc1F [MDV3100]; test: surviving fraction relative to DMSO-only wells; higher = less growth inhibition; conditions: exposure time: 5 days
Method in brief: (§1)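 Luminescence normalised to the median of DMSO-only wells defines surviving fraction, with viability read by CellTiter-Glo. Signal was recorded after 10 minutes at room temperature, once log-phase tumour cell lines seeded at 250–500 cells per well in 384-well plates had spent 24 hours settling and then five days under continuous exposure to inhibitors at 0.5, 1, 5, 10, 50, 100, 500 and 1000 nM.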

BI-2536 = compound: CC[C@@H]1C(=O)N(C)c2cnc(Nc3ccc(C(=O)NC4CCN(C)CC4)cc3OC)nc2N1C1CCCC1 [BI-2536]; test: as above; conditions: exposure time: 5 days
Method in brief: as §1

SAPACITABINE = compound: CCCCCCCCCCCCCCCC(=O)Nc1ccn([C@@H]2O[C@H](CO)[C@@H](O)[C@@H]2C#N)c(=O)n1 [SAPACITABINE]; test: area under dose-response curve of surviving fraction (unscaled, Aref=0) (surviving fraction x log10(nM)); higher = more resistant; conditions: exposure time: 5 days; dose range 0.5-1000 nM
Method in brief: (§2)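 Tumour cell lines in 384-well plates were exposed for five days to eight inhibitor concentrations from 0.5 to 1000 nM. Viability was read by CellTiter-Glo luminescence, normalised to DMSO-only wells, in three screens per line. Dose-response survival curves were fitted to surviving fractions by 3-parameter logistic regression in the drc R package. Area under the curve is the unscaled activity area (Aref = 0) over log10 dose.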

AFATINIB = compound: CN(C)C/C=C/C(=O)Nc1cc2c(Nc3ccc(F)c(Cl)c3)ncnc2cc1O[C@H]1CCOC1 [AFATINIB]; test: as above; conditions: exposure time: 5 days; dose range 0.5-1000 nM
Method in brief: as §2

TIOGUANINE = compound: Nc1nc2[nH]cnc2c(=S)[nH]1 [TIOGUANINE]; test: as above; conditions: exposure time: 5 days; dose range 0.5-1000 nM
Method in brief: as §2

[1] = compound: Cn1cc(C2=Nc3cc(NC(=O)C(N)C4CCCCC4)cc4c3C2=CNNC4=O)cn1; test: as above; conditions: exposure time: 5 days; dose range 0.5-1000 nM
Method in brief: as §2

| Test System | surviving fraction (MDV3100; 0.5 nM) | surviving fraction (MDV3100; 1 nM) | surviving fraction (MDV3100; 5 nM) | surviving fraction (MDV3100; 10 nM) | surviving fraction (MDV3100; 50 nM) | surviving fraction (MDV3100; 100 nM) | surviving fraction (MDV3100; 500 nM) | surviving fraction (MDV3100; 1000 nM) | surviving fraction (BI-2536; 0.5 nM) | surviving fraction (BI-2536; 1 nM) | surviving fraction (BI-2536; 5 nM) | surviving fraction (BI-2536; 10 nM) | surviving fraction (BI-2536; 50 nM) | surviving fraction (BI-2536; 100 nM) | surviving fraction (BI-2536; 500 nM) | surviving fraction (BI-2536; 1000 nM) | area under dose-response curve (SAPACITABINE) | area under dose-response curve (AFATINIB) | area under dose-response curve (TIOGUANINE) | area under dose-response curve [1] |
| --- | --- | --- | --- | --- | --- | --- | --- | --- | --- | --- | --- | --- | --- | --- | --- | --- | --- | --- | --- | --- |
| HCC38 BREAST | 1.02 ± 0.14 | 1.27 ± 0.2 | 1.28 ± 0.038 | 1.1 ± 0.066 | 1.25 ± 0.027 | 1.35 ± 0.11 | 1.28 ± 0.038 | 1.13 ± 0.19 | 1.08 ± 0.078 | 1.15 ± 0.18 | 0.289 ± 0.021 | 0.247 ± 0.038 | 0.219 ± 0.025 | 0.254 ± 0.017 | 0.191 ± 0.019 | 0.115 ± 0.024 | 2.32 | 3.94 | 3.75 | 1.69 |
| HCC78 LUNG | 0.976 ± 0.13 | 0.75 ± 0.27 | 1.03 ± 0.11 | 0.972 ± 0.14 | 0.799 ± 0.14 | 0.925 ± 0.092 | 0.664 ± 0.045 | 0.451 ± 0.051 | 0.932 ± 0.33 | 0.781 ± 0.13 | 0.16 ± 0.03 | 0.091 ± 0.031 | 0.0883 ± 0.011 | 0.156 ± 0.023 | 0.112 ± 0.021 | 0.0973 ± 0.01 | 1.52 | 2.33 | 2.59 | 2.33 |
| HCC1395 BREAST | 1.18 ± 0.027 | 1.14 ± 0.089 | 1.24 ± 0.075 | 1.08 ± 0.19 | 1.18 ± 0.15 | 1.1 ± 0.15 | 1.18 ± 0.16 | 1.16 ± 0.024 | 1.04 ± 0.12 | 0.9 ± 0.043 | 0.709 ± 0.18 | 0.623 ± 0.15 | 0.729 ± 0.071 | 0.661 ± 0.05 | 1.11 ± 0.19 | 0.78 ± 0.029 | 2.91 | 3.5 | 3.56 | 2.62 |
| HCC1954 BREAST | 1.12 ± 0.018 | 0.975 ± 0.18 | 1.17 ± 0.19 | 1.25 ± 0.25 | 0.919 ± 0.077 | 0.909 ± 0.017 | 0.9483 ± 0.0088 | 0.771 ± 0.012 | 0.883 ± 0.13 | 0.766 ± 0.2 | 0.245 ± 0.035 | 0.235 ± 0.057 | 0.433 ± 0.0095 | 0.781 ± 0.0014 | 0.89 ± 0.035 | 0.699 ± 0.014 | 1.48 | 1.86 | 3.09 | 2.06 |
| HOS BONE | 1.007 ± 0.0093 | 0.9937 ± 0.0011 | 1.01 ± 0.017 | 0.982 ± 0.0062 | 1.05 ± 0.022 | 1.05 ± 0.021 | 1.05 ± 0.017 | 1.015 ± 0.0067 | 1.02 ± 0.015 | 0.979 ± 0.008 | 0.203 ± 0.044 | 0.031 ± 0.0027 | 0.0337 ± 0.0029 | 0.023 ± 0.001 | 0.018 ± 0.001 | 0.0207 ± 0.00058 | 2.63 | 3.28 | 3.16 | 2.35 |
| HOSMNG BONE | 1.02 ± 0.035 | 1.01 ± 0.023 | 1.02 ± 0.041 | 1.05 ± 0.033 | 1.11 ± 0.054 | 1.18 ± 0.088 | 1.15 ± 0.062 | 1.09 ± 0.032 | 1.03 ± 0.017 | 0.955 ± 0.11 | 0.918 ± 0.055 | 0.268 ± 0.033 | 0.047 ± 0.0036 | 0.046 ± 0.013 | 0.0673 ± 0.0061 | 0.0843 ± 0.013 | 3.25 | 3.23 | 3.34 | 3.09 |
| HSSYII SYNOVIAL | 0.881 ± 0.042 | 0.848 ± 0.052 | 0.903 ± 0.022 | 0.545 ± 0.034 | 0.908 ± 0.028 | 0.9 ± 0.066 | 0.949 ± 0.032 | 0.721 ± 0.01 | 0.998 ± 0.053 | 0.944 ± 0.04 | 0.102 ± 0.023 | 0.0418 ± 0.0018 | 0.045 ± 0.0054 | 0.0367 ± 0.001 | 0.0423 ± 0.0025 | 0.0472 ± 0.00058 | 1.36 | 2.96 | 3.09 | 1.67 |
| HT1080 SOFT TISSUE | 1.052 ± 0.0076 | 1.07 ± 0.03 | 1.063 ± 0.008 | 1.05 ± 0.016 | 1.02 ± 0.018 | 1.04 ± 0.045 | 0.999 ± 0.015 | 0.994 ± 0.027 | 1.05 ± 0.027 | 1.067 ± 0.01 | 0.9357 ± 0.0021 | 0.087 ± 0.0056 | 0.0513 ± 0.0051 | 0.051 ± 0.0035 | 0.077 ± 0.0046 | 0.0823 ± 0.0095 | 2.33 | 3.25 | 3.16 | 2.6 |
| HU09 BONE | 0.984 ± 0.077 | 1.03 ± 0.11 | 1.05 ± 0.071 | 1.12 ± 0.18 | 1 ± 0.055 | 1.04 ± 0.057 | 0.952 ± 0.053 | 0.954 ± 0.018 | 1.03 ± 0.049 | 0.939 ± 0.14 | 0.066 ± 0.0044 | 0.0487 ± 0.0047 | 0.086 ± 0.033 | 0.076 ± 0.017 | 0.0617 ± 0.0081 | 0.0403 ± 0.0032 | 2.37 | 3.05 | 3.42 | 2.19 |
| HUO3N1 BONE | 1.01 ± 0.018 | 0.989 ± 0.025 | 1.01 ± 0.044 | 1.03 ± 0.044 | 1.06 ± 0.054 | 1.02 ± 0.041 | 1.01 ± 0.069 | 1.01 ± 0.019 | 0.991 ± 0.0085 | 0.994 ± 0.071 | 0.6 ± 0.1 | 0.242 ± 0.035 | 0.211 ± 0.0099 | 0.204 ± 0.022 | 0.265 ± 0.014 | 0.303 ± 0.016 | 2.73 | 3.17 | 3.41 | 2.88 |
| JIMT1 BREAST | 0.964 ± 0.025 | 0.9673 ± 0.007 | 1.01 ± 0.02 | 0.983 ± 0.02 | 1.04 ± 0.048 | 1.07 ± 0.076 | 1.05 ± 0.055 | 0.982 ± 0.025 | 0.941 ± 0.041 | 0.737 ± 0.015 | 0.2183 ± 0.0013 | 0.181 ± 0.0095 | 0.18 ± 0.017 | 0.158 ± 0.02 | 0.143 ± 0.0061 | 0.0883 ± 0.0045 | 2.84 | 2.62 | 3.25 | 2.96 |
| JURKAT HAEMATOPOIETIC AND LYMPHOID TISSUE | 1.095 ± 0.0049 | 1.1 ± 0.02 | 1.09 ± 0.022 | 1.06 ± 0.018 | 1.05 ± 0.015 | 1.06 ± 0.031 | 1 ± 0.027 | 0.997 ± 0.039 | 1.04 ± 0.022 | 0.911 ± 0.015 | 0.028 ± 0.001 | 0.0257 ± 0.00058 | 0.0297 ± 0.00058 | 0.0217 ± 0.00058 | 0.0177 ± 0.00058 | 0.021 | 1.09 | 3.13 | 3.27 | 2.23 |
| KPD BONE | 0.955 ± 0.071 | 0.975 ± 0.023 | 0.997 ± 0.048 | 0.985 ± 0.044 | 1.04 ± 0.058 | 1.04 ± 0.067 | 0.977 ± 0.19 | 0.938 ± 0.015 | 0.919 ± 0.06 | 0.925 ± 0.022 | 0.79 ± 0.024 | 0.482 ± 0.016 | 0.205 ± 0.012 | 0.197 ± 0.011 | 0.113 ± 0.0035 | 0.0597 ± 0.0038 | 2.81 | 3.02 | 3.35 | 2.3 |
| LM7 BONE | 0.992 ± 0.053 | 1.01 ± 0.073 | 1.07 ± 0.096 | 1.06 ± 0.03 | 1.15 ± 0.09 | 1.14 ± 0.087 | 1.07 ± 0.096 | 0.963 ± 0.05 | 0.925 ± 0.054 | 0.688 ± 0.027 | 0.0677 ± 0.0055 | 0.076 ± 0.0056 | 0.137 ± 0.013 | 0.128 ± 0.025 | 0.0773 ± 0.004 | 0.0653 ± 0.012 | 1.77 | 2.89 | 3.33 | 2.46 |
| LNCAP PROSTATE | 1.05 ± 0.15 | 0.962 ± 0.035 | 0.912 ± 0.089 | 0.957 ± 0.13 | 0.979 ± 0.012 | 0.925 ± 0.053 | 0.663 ± 0.033 | 0.497 ± 0.079 | 1.05 ± 0.099 | 1.03 ± 0.08 | 0.0577 ± 0.0084 | 0.0533 ± 0.0055 | 0.113 ± 0.018 | 0.115 ± 0.028 | 0.141 ± 0.022 | 0.112 ± 0.013 | 2.15 | 3.17 | 3.21 | 3.06 |

From the supplement of paper PMC6045584
